Data on six compounds can be found in patent US20030113312A1, “Skin barrier function and cohesion through enhanced stratum corneum acidification” (The Regents of the University of California, priority 2001, published 2003).

Where only a bound is given, the exact number is not on record here.

Experiment [1] relates to hairless mice skin (stratum corneum). Put plainly: Electron microscopy of lamellar body secretion and extracellular lipid processing. It counts as in vivo, mouse. As to conditions: EM of biopsies. The procedure:
(§1) The stratum corneum was removed by several strippings with adhesive tape (Tesa, Beiersdorf, Germany) inducing an increase in TEWL rates above baseline (from 0.2 to approximately 7-9 g/m^2/h). Two sites were prepared on each animal, and TEWL and surface pH were measured at 0, 2, 5 and 24 hrs following the stripping and the applications of inhibitors. Biopsies were taken for electron microscopy from treated and control sites, at 5 and 24 hours. For studies in the NHE1 knockout mice, homozygous (−/−) mice were compared to their wildtype (+/+) littermates. Flanks of these mice were shaved, and barrier homostasis was studied 48 hours later. For tape-stripping of these animals, D-Squame disks (Cu-derm, Dallas, Tex.) were used, as Tesa tape was too disruptive for application to shaved, hairy mouse skin.
Ultrastructural methods: Freshly obtained biopsies from mouse skin were fixed directly in modified Karnovsky's fixative, postfixed with reduced osmium tetroxide (OS04) and then imbedded in an Epon-epoxy mixture. For visualization of lipid-enriched, lamellar bilayer structures, some samples were post fixed in ruthenium tetroxide (RuO4). Sections were cut on a Reichert Ultracut E microtome, counterstained with uranyl acetate and lead citrate, and viewed in a Zeiss 10 CR electron microscope, operated at 60 kV.
Biopsies were taken during time course experiments.

Experiment [2] concerns the target T1, NHE1 antiporter (Mus musculus, UniProt Q61165).
T1 construct: from tissue; host or cells: skin (epidermis / stratum corneum) of living hairless mice
Description: Stratum corneum surface pH after tape stripping with buffers with or without NHE1 inhibitor. It counts as in vivo. Here is the method:
(§2) Permeability Barrier Studies: Normal hairless mice were treated topically twice a daily for three days with BPB (4 mg/mL) or MJ33 (4 mg/mL) both in propylene glycol:ethanol (7:3 v/v) vehicle, or the vehicle alone on an area of 5-6 cm on the backs and flanks as described previously (Mao-Qiang, M., et al., J. Lipid Res. 36:1926-35 (1995)). The doses employed were shown previously to be non-toxic to Murine skin (Mao-Qiang, M., et al. (1995); Mao-Qiang, M., et al., J. Invest. Dermatol. 106:57-63 (1996)), and to inhibit secretory phospholipase A2 (sPLA2) activity selectively in different cell types (Gelb, M. H., et al., Faseb J. 8:916-24 (1994); Jain, M. K., et al. (1991)). The acidification experiments were performed with 10 mM HEPES-buffer, adjusted to either pH 5.5 or pH 7.4 as follows: One flank of anesthetized mice was immersed on a mesh netting, as described previously (Lee, S. H., et al., J. Clin. Invest. 89:530-8 (1992)). The mice were anesthetized with chloral hydrate (Morton Grove Pharmaceuticals, Morton Grove, Ill., USA). After 3 hours immersion at 37° C., the mice were removed, and the remaining buffer was gently blotted off. After 15 minutes, barrier function was determined by measurement of transepidermal water loss (TEWL) with an electrolytic water analyzer (MEECO®, Warrington, Pa.). Surface pH was measured with a flat, glass surface electrode from Mettler-Toledo (Giessen, Germany), attached to a pH meter (Skin pH Meter PH 900, Courage & Khazaka, Cologne, Germany). Individually tested sites were covered with Hilltop Chambers (HtC, nominal volume […]), which were reapplied following each indvidual measurement.
as §1
To investigate the role of NHE 1 in maintaining the pH balance of the stratum corneum, the integrity of murine skin exposed to different buffers and NHE1 inhibitors, was disrupted by tape-stripping. The pH of the exposed skin was measured before and after tape-stripping. Before tape-stripping, the surface pH in all animals was acidic (6.03+/−0.20, n=78). […] At five hours post-tape-strip, these samples were still not fully recovered, remaining more than 0.05 pH units higher than the initial post-tape-strip values.

Experiment [3] concerns the target T2, NHE1 antiporter (Homo sapiens, UniProt P19634).
T2 construct: endogenous in cells; host or cells: second passage cultured human keratinocytes from human foreskin (CHK)
Description: Intracellular pH (BCECF) and recovery from acid load in cultured human keratinocytes. It counts as cell-based. Here is the method:
Assessment of Intracellular pH: Keratinocytes were plated on glass coverslips and grown in Cascade 154 medium containing 0.07 mM Ca^2+. The coverslips were incubated in 145 μM BCECF-AM ester at room temperature for 5 minutes, then rinsed for 30 minutes in buffer containing either 28 mM HEPES, 136 mM NaCl, 5 mM KCl, 0.07 mM CaCl2 and 10 mM glucose, pH 7.4 or Ringer solution (136 mM NaCl, 5 mM KCl, 0.03 mM Ca2+, 28 mM TES, 14 mM Na HCO3, NaOH to adjust the pH to 7.4, and 10 mM glucose (pH 7.4, 330 mOsm)). BCECF-AM-ester is membrane permeable; once inside cells it is de-esterified by endogenous […], trapping flourescently-active, acidic BCECF inside the cells. The BCECF-loaded cells were placed in a superfusion chamber mounted on a inverted microscope (Nikon). The keratinocytes were superfused with one of the two solutions, and baseline intracellular pH was monitored constantly using a ratiometric method (Paradiio et al (1987) Am J. Physiol. 253:C30-6). Briefly, BCECF loaded cells were alternately illuminated every 10 seconds with brief flashes (200 milliseconds) of 440 nm and 490 nm light. The resultant fluorescence (at 530 nm) from each stimulating wavelength was measured with a CCD camera (Hamamatsu) digitally ratioed, and stored using a software program (Fluor, Universal Imaging Co., West Chester, Pa.). Whereas fluorescence emission at 440 nm excitation remains constant, indicative of dye concentration, emission from 490 nm varies proportionally with changes intracellular pH. By ratioing the two signals, intracellular pH is measured as a brightness signal corrected for the intracellular dye concentration.
Calibration was performed at the end of each experiment by permeablizing the cells to protons with nigericin, thereby equilibrating intra- and extracellular pH. Superfusing the cells with solutions containing 85 mM NaCl, 50 mM KCl, 0.07 mM CaCl2, […] nigericin (a K^+/H^+ exchanger), and either 28 mM HEPES, or 28 mM TES bubbled with 5% CO2, pH 6.8 or 7.8, allowed to calibrate intracellular signals. […]

Experiment [4] deals with T1, NHE1 antiporter. Description: Barrier recovery (TEWL) after tape stripping. It counts as in vivo. Particulars: for kinetics of barrier recovery after tape-stripping: NHE1 inhibitors, topical, hairless mice. Here is the method: as §2, §1
Hairless mice were tape stripped to TEWL of 7-9 g/m^2/h. […] Control areas were covered with Hilltop Chambers containing 10 mM HEPES buffer adjusted to pH 7.4 or pH 5.5 as appropriate. TEWL was measured at 0, 2, 5, and 24 hours post tape-strip. The results are reported as percent barrier recovery from the initial induced defect.

Experiment [5] deals with hairless mice skin (stratum corneum). Put plainly: Stratum corneum integrity: TEWL after sequential tape stripping. As to conditions: for TEWL rate by the fifth strip: fatty acid co-applied with BPB for three days; for sPLA2 inhibitor induced abnormalities in stratum corneum integrity and cohesion: fatty acid co-applied with BPB or MJ33. The experiment is classed as in vivo, mouse.
Description: The mice were anesthetized with chloral hydrate (Morton Grove Pharmaceuticals, Morton Grove, Ill., USA). […] After 15 minutes, barrier function was determined by measurement of transepidermal water loss (TEWL) with an electrolytic water analyzer (MEECO®, Warrington, Pa.). […] Individually tested sites were covered with Hilltop Chambers (HtC, nominal volume 200 mL), which were reapplied following each indvidual measurement.

Experiment [6] shares this test system. Put plainly: Stratum corneum cohesion: protein removed per D-Squame stripping. It counts as in vivo, mouse. Particulars: for cumulative protein loss at the fifth strip: fatty acid co-applied with BPB for three days.
Description: Before stripping the stratum corneum, the skin surface was cleaned with a single ethanol wipe. D-Squame tapes then were placed sequentially to the test areas for about 3 sec each, removed with forceps, and stored in glass scintillation vials at 5° C.
The protein content per stripping was determined with the Bio-Rad protein assay kit. […] Each tape was incubated with 1 M NaOH for 1 hour at 37° C. in an incubator shaker at 80 rpm, and neutralized thereafter with 1 mL of 1 M HCl in the scintillation vials. Subsequently, 0.2 mL of this solution was incubated in 0.6 ml distilled water plus 0.2 mL of the Bio-Rad protein dye for 5 minutes in boroscillate tubes. […] An empty D-Squame tape, as well as distilled water incubated with Bio-Rad dye, served as negative controls. The amount of calculated protein was then normalized to skin surface area (μg/cm^2).
For experiment [7] the test system is unchanged. Put plainly: Skin surface pH after topical treatment or buffer exposure. The experiment is classed as in vivo, mouse. As to conditions: free fatty acid co-applied with BPB for three days.
Description: Animals: Male hairless mice (Skh1/Hr, Charles River Laboratories, Wilmington, Mass.), 8-12 weeks old, were fed Purina mouse diet and water ad libitum. […] Functional experiments were performed on animals aged 6-10 weeks.
The mice were anesthetized with chloral hydrate (Morton Grove Pharmaceuticals, Morton Grove, Ill., USA). After 3 hours immersion at 37° C., the mice were removed, and the remaining buffer was gently blotted off. After 15 minutes, barrier function was determined by measurement of transepidermal water loss (TEWL) with an electrolytic water analyzer (MEECO®, Warrington, Pa.). Surface pH was measured with a flat, glass surface electrode from Mettler-Toledo (Giessen, Germany), attached to a pH meter (Skin pH Meter PH 900, Courage & Khazaka, Cologne, Germany). Individually tested sites were covered with Hilltop Chambers (HtC, nominal volume 200 mL), which were reapplied following each indvidual measurement.
Setting [8] is: HOE694 in pH 7.4 buffer, two hours post tape strip.
The mark [9] stands for this setting: inhibitor in pH 7.4 buffer (amiloride 5 μM, HOE694 7.5 μM), two hours post tape-strip.
[10] abbreviates: inhibitor in pH 7.4 buffer, five hours post tape-strip.
Where [11] appears, read: fatty acid co-applied with MJ33 for three days.

T2 sequence (P19634 whole entry): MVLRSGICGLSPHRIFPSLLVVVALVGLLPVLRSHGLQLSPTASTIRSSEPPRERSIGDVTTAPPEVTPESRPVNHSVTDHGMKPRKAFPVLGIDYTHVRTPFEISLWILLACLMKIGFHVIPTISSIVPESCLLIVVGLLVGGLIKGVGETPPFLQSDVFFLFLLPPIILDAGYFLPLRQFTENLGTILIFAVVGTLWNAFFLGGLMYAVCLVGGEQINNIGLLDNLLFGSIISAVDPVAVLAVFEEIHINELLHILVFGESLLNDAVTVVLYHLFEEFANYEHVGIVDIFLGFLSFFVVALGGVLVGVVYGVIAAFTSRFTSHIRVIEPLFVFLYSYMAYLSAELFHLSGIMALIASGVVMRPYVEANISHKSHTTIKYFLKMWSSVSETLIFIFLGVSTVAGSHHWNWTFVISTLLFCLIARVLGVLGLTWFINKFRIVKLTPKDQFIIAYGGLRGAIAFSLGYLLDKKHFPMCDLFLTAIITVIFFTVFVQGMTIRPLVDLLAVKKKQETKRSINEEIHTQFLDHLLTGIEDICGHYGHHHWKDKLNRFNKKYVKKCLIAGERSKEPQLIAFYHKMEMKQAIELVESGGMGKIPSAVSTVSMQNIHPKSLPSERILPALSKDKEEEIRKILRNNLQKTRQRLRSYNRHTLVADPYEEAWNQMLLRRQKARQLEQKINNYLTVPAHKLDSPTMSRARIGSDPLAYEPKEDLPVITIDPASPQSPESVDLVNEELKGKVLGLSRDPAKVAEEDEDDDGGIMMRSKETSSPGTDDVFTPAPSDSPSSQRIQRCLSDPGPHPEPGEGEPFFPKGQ
T1 sequence (Q61165 whole entry): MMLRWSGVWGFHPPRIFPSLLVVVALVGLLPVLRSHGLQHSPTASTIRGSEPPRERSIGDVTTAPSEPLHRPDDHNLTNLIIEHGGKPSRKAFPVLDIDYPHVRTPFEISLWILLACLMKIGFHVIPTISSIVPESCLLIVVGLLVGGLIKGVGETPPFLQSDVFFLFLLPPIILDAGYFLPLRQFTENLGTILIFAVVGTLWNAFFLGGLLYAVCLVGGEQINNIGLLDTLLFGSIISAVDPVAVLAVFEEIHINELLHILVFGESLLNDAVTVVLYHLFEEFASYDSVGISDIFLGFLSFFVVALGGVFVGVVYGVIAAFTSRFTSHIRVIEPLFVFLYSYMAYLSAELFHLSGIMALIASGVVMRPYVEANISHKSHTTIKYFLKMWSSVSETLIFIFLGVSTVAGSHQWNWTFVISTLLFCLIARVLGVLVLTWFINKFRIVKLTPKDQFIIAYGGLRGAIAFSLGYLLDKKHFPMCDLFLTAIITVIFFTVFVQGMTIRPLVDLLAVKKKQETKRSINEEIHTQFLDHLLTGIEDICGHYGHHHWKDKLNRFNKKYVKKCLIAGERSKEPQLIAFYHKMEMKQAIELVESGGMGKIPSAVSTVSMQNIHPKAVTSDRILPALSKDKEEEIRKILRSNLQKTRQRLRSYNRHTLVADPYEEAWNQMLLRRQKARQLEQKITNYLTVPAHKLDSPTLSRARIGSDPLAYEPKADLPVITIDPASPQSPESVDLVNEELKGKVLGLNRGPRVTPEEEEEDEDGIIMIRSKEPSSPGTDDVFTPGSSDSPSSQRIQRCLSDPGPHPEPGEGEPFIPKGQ

As to `CS(=O)(=O)c1cc(C(=O)NC(=N)N)ccc1N1CCCCC1` [HOE694, 3-methylsulfonyl-4-piperidino-benzoylguanidinemethanesulfonate], the “extracellular processing of secreted lipids” value in experiment [1] (HOE694 in pH 5.5 buffer) was “appeared normal”; in experiment [1] (HOE694 in pH 7.4 buffer), “defective”. Besides, the “lamellar body formation and secretion” value in experiment [1] (HOE694 in pH 7.4 buffer) is given as “undisturbed”. Also, the “initial post-tape-strip pH value vs pH 5.5 buffer alone” value at NHE1 antiporter [2] (HOE694 in pH 5.5 buffer) was “increased significantly”. The “pH increase over the initial post-tape-strip value” was “more than 0.05 pH units” on NHE1 antiporter [2] (HOE694 in pH 5.5 buffer, five hours post-tape-strip); “more than 0.1 pH units” at NHE1 antiporter [2] (HOE694 in pH 5.5 buffer, two hours post-tape-strip); more than 0.1 pH unit on NHE1 antiporter [2] (setting [8]). Besides, on NHE1 antiporter [2] (HOE694 in pH 7.4 buffer), the “initial post-tape-strip pH value vs pH 7.4 buffer only” value was “similar”. Also, at NHE1 antiporter [2] (HOE694 in pH 7.4 buffer, five hours post tape strip), the “elevated pH at five hours” value was “persisted and even increased”. For the same compound, the “pH increase over the two hour time point of pH 7.4 buffer alone” value at NHE1 antiporter [2] (setting [8]) is listed as approximately 0.05 pH units. Besides, on NHE1 antiporter [3] (1.5 μM for 16 hours, dropped from pH 7.05), the “intracellular pH” value amounted to 6.90 pH. For the same compound, the “percent barrier recovery (TEWL rate less than the initial induced rate)” value at NHE1 antiporter [4] (HOE694 in pH 5.5 buffer, 2 hours post tape-strip) is given as 25%; on NHE1 antiporter [4] (HOE694 in pH 5.5 buffer, 5 hours post tape-strip), 38%; at NHE1 antiporter [4] (HOE694 in pH 5.5 buffer, 24 hours post tape-strip), 75%; on NHE1 antiporter [4] (setting [9]), “about 12%”; at NHE1 antiporter [4] (inhibitor in pH 7.4 buffer, 24 hours post tape-strip) it was “about 45%”; on NHE1 antiporter [4] (setting [10]), 23%. Besides, the “kinetics of barrier recovery after tape-stripping” value at NHE1 antiporter [4] is recorded as “delayed barrier recovery”.
Consider `CCCCCCCCCCCCCCCC(=O)O` [palmitic acid], for which, in experiment [5], the “TEWL rate by the fifth strip” value is 55-60 g/m^2/h; the “sPLA2 inhibitor induced abnormalities in stratum corneum integrity and cohesion” value (“sPLA2 inhibitor induced abnormalities” for short) is on record as “prevented emergence”. For the same compound, in experiment [5] (setting [11]), the “TEWL rate after three sequential tape-strippings” value is 30-35 g/m^2/h. Besides, the “cumulative protein loss at the fifth strip” value in experiment [6] was “about 40 μg/cm^2”. In addition, the “loss of protein after three strippings” value in experiment [6] (setting [11]) is given as “about 30 μg/cm^2”. In addition, the “pH of the stratum corneum” value in experiment [7] was 5.40+/−0.14.
In the case of `CCCCCCCCCCCCCCCCCC(=O)O` [stearic acid], in experiment [5], the “TEWL rate by the fifth strip” value is recorded as “about 25 g/m^2/h”; the “sPLA2 inhibitor induced abnormalities” value is listed as “prevented emergence”. Moreover, the “cumulative protein loss at the fifth strip” value in experiment [6] was “about 25 μg/cm^2”. In addition, the “pH of the stratum corneum” value in experiment [7] is on record as 5.73+/−0.09.
`N=C(N)NC(=O)c1nc(Cl)c(N)nc1N` [amiloride, N-Amido-3,5-diamino-6-chloropyrazinecarboxamide]: on NHE1 antiporter [3] (cultured human keratinocytes, wash out of amiloride, recovery from the acid load), the “effect after wash out period” value is given as “non-permanent, non-toxic effect”. The “kinetics of barrier recovery after tape-stripping” value on NHE1 antiporter [4] was “delayed barrier recovery”. For the same compound, the “percent barrier recovery (TEWL rate less than the initial induced rate)” value is on record as “about 12%” at NHE1 antiporter [4] (setting [9]) and “about 25%” on NHE1 antiporter [4] (setting [10]).
Take `Cl.N` [NH4Cl, ammonium chloride]: the “intracellular pH response” value on NHE1 antiporter [3] (NH4Cl added to cultures of CHK, initial alkalinization, then after dissociation of the ammonium ion) is “take on an acid load”.
`CCCCC/C=C\C/C=C\CCCCCCCC(=O)O` [linoleic acid]: the “sPLA2 inhibitor induced abnormalities” value in experiment [5] is “to a lesser extent”. The “pH of the stratum corneum” value in experiment [7] is on record as 5.77+/−0.10.
